In patent publication US20160115200A1, “New Use for JNK Inhibitor Molecules for Treatment of Various Diseases” (XIGEN INFLAMMATION LTD., priority 2013, published 2016):
Square brackets hold non-standard residues; d marks the D form. Ends that are not written are not given here.

Key:
[1] = test system: IMQ-induced psoriasis in BALB/c mice; experiment: Imiquimod-induced psoriasis in mice, ear histopathology; assay type: in vivo, mouse; conditions: Prednisolone 10 mg/kg PO daily; for inflammation of the ear (average histopathology grade) vs vehicle-IMQ group: statistically significant
Protocol: Female BALB/cAnNCrl mice (Charles River, age 8 to 10 weeks at study start) have been assigned to the following groups (treatment schedule):
In this experiment, two positive controls have been utilized. Firstly, Prednisolone at 10 mg/kg (vehicle: 1% Hydroxyethylcellulose, 0.25% Polysorbate 80, and 0.05% Antifoam in purified water) has been dosed daily and orally (group “Prednisolone”). Secondly, Dexamethasone has been administered at 0.5 mg/kg (vehicle: sterile 0.9% NaCl) on days 1, 4 and 7 via intravenous route.
On day 8, animals have been sacrificed and the tissue (ear) has been fixed in 10% neutral buffered formalin. For histopathology hematoxylin-and-eosin-stained sections (cross cut) have been prepared and microscopic evaluation on the collected tissues from all animals has been performed. Methods and end-points for histopathology were similarly described in the van der Fits (2009) paper in that inflammation, epidermal hyperplasia, epidermal hyperkeratosis (rather than parakeratosis) were observed and recorded for severity grade, whereby the respective methodology from Van der Fits et al. (The Journal of Immunology 2009, 182, P. 5836-5845) is hereby incorporated by reference. Histopathology grading scores were excluded for either skin or ear in animals with secondary inflammatory processes (full thickness epidermal ulcers). Scores were averaged by group and standard deviation and statistical significance were calculated. […] Formalin-fixed, paraffin embedded skin from the dorsal surface of the mouse (BALB/c) was stained with hematoxylin and eosin (H&E) stain and assessed microscopically. An important difference from the above reference and to describe in more detail the observations of the present study: Hyperkeratosis can be defined specifically as orthokeratotic (no retained nuclei) or parakeratotic (retained nuclei). Either can occur normally in various anatomical locations and depending on species; however, both conditions are well defined in particular disease states. The van der Fits paper describes their Imiquimod (IMQ)-induced psoriasis model as causing parakeratotic hyperkeratosis similar to what is seen in the human condition, and that was a defined end-point for this study. However, the Danilenko et al. (Veterinary Pathology 2008 45:563) has shown that many rodent psoriasis models have orthokeratotic hyperkeratosis. […] The more general term ‘hyperkeratosis’ was used for grading end-points and describe in the text what type was seen (primarily orthokeratotic).
1=MI=minimal 2=SL=slight 3=M0=moderate 4=MA=marked 5=SE=severe

[2] = test system: endotoxins-induced uveitis albino rat model; experiment: Endotoxins-induced uveitis (EIU), single intravenous injection, clinical scoring 24 h after LPS; assay type: in vivo; design: key to EIU clinical score, median: clinical score per eye, 0 to 4 scale; conditions: 20 μg/eye sub-conjunctival, 24 hours after LPS
Protocol: The aim of this study was to determine the effects of single intravenous injections of SEQ ID NO: 172 (0.015, 0.18, and 1.80 mg/kg) on the inflammatory response in an endotoxins-induced uveitis albino rat model and to compare these affects to those obtained with prior art JNK inhibitor of SEQ ID NO: 197 (2 mg/kg). As a further control served phosphate sodic dexamethasone.
Sixty (60) male Lewis rats were randomly divided into six (6) groups of ten (10) animals each. EIU was induced by footpad injection of lipopolysaccharide (LPS, 1 mg/kg). NaCl (0.9%), SEQ ID NO: 197 at 2 mg/kg and SEQ ID NO: 172 at three concentrations (1.80 mg/kg, 0.18 mg/kg and 0.015 mg/kg) were administered by intravenous injection. Phosphate sodic dexamethasone (20 μg/eye) was administered by sub-conjunctival injection in both eyes. 24 hours after LPS injection, inflammatory response was evaluated by clinical scoring.
The intensity of clinical ocular inflammation was scored on a scale from 0 to 4 for each eye: […]

[3] = test system: established type II collagen arthritis in rats; conditions: Dex 0.05 mg/kg IV QD
Hela cells = experiment: Internalization of TAT derived transporters, 24 hours, fluorescence of cell extracts (FIG. 6); assay type: cell-based; conditions: Y in position 2
Protocol: The transporter sequences analyzed correspond to SEQ ID NOs: 52-94 plus SEQ ID NOs: 45, 47, 46, 43 and 99 (FIG. 6a) and SEQ ID NOs: 100-147 (FIG. 6b). […] Hela cells were incubated 24 hours in 96 well plate with […] of the respective transporters. The cells were then washed twice with an acidic buffer (0.2M Glycin, 0.15M NaCl, pH 3.0) and twice with PBS. Cells were broken by the addition of RIPA lysis buffer. The relative amount of internalized peptide was then determined by reading the fluorescence intensity (Fusion Alpha plate reader; PerkinElmer) of each extract followed by background subtraction.
Hela cells were incubated 24 hours in 96 well plate with […] of the r3-L-TAT-derived transporters. The cells were then washed twice with an acidic buffer (0.2M Glycin, 0.15M NaCl, pH 3.0) and twice with PBS. Cells were broken by the addition of RIPA lysis buffer. The relative amount of internalized peptide was then determined by reading the fluorescence intensity (Fusion Alpha plate reader; PerkinElmer) of each extract followed by background subtraction

`C[C@]12C=CC(=O)C=C1CC[C@@H]1[C@@H]2[C@@H](O)C[C@@]2(C)[C@H]1CC[C@]2(O)C(=O)CO` [Prednisolone, reference compound] was tested, and the “epidermal hyperkeratosis of the ear, average grades vs vehicle-IMQ group” value [1] was “minimally decreased average grades”, the “epidermal hyperplasia of the ear vs vehicle-IMQ group” value ([1]; not statistically significant) was “below that of the vehicle-IMQ dose group” and the “inflammation of the ear (average histopathology grade) vs vehicle-IMQ group” value [1] was “decreased inflammation of the ear”. For the same compound, the “inflammation of the ear (average histopathology grade) vs vehicle-IMQ group” value ([1]; listed as prednisolone) was “significant differences from the vehicle control group”.
`C[C@@H]1C[C@H]2[C@@H]3CCC4=CC(=O)C=C[C@]4(C)[C@@]3(F)[C@@H](O)C[C@]2(C)[C@@]1(O)C(=O)CO` [dexamethasone, reference compound] was tested, and the “EIU clinical score, mean±SEM” value [2] was 0.8±0.2, the “EIU clinical score, median” value [2] was 0.5 and the “reduction of clinical scores vs vehicle” value [2] was 79%. For the same compound, the “spleen weights relative to body weight vs disease controls” value [3] was “significantly (p<0.05 by ANOVA) reduced” and the “thymus weights relative to body weight vs disease controls” value [3] was “significantly (p<0.05 by ANOVA) reduced”.
For “rYKRrQRRr ([dR]YKR[dR]QRR[dR]) [SEQ ID NO: 142]”, the “transporter activity and kinetics of transport (position scan)” value (Hela cells) was “highest transporter activity”.
